# Data published in article PMC12142043, “Cell-based high-content approach for SARS-CoV-2 neutralization identifies unique monoclonal antibodies and PI3K pathway inhibitors” (Frontiers in Cell and Developmental Biology, 2025).
# Structures can show the parent of a compound that is named as a salt.
# Tested on: SARS-CoV-2 (USA-WA1/2020) in Calu-3 cells
# Type: cell-based
# Conditions: for dsRNA signal, AU High: high dose (10 µM); for dsRNA signal, AU High / dsRNA signal, AU Low: Calu-3, 48 h; for dsRNA signal, AU Low: low dose (100 nM)
SMILES,"dsRNA signal, AU High [AU]","dsRNA signal, AU Low [AU]",Reduction of infection in representative images (Figure 4A)
CC(C)=CCC[C@](C)(O[C@@H]1O[C@H](CO)[C@@H](O)[C@H](O)[C@H]1O)[C@H]1CC[C@]2(C)[C@@H]1[C@H](O)C[C@@H]1[C@@]3(C)CC[C@H](O)C(C)(C)[C@@H]3[C@@H](O[C@@H]3O[C@H](CO)[C@@H](O)[C@H](O)[C@H]3O[C@@H]3O[C@@H](C)[C@H](O)[C@@H](O)[C@H]3O)C[C@]12C [Ginsenoside Re],10054.1,65920.2,–
CC(C)=CCC[C@](C)(O)[C@H]1CC[C@]2(C)[C@@H]1[C@H](O)C[C@@H]1[C@@]3(C)CC[C@H](O[C@@H]4O[C@H](CO)[C@@H](O)[C@H](O)[C@H]4O)C(C)(C)[C@@H]3CC[C@]12C [Ginsenoside Rh2],41827.1,30569.1,–
COc1ccc2c(c1)c(C1=C(c3c[nH]c4ccccc34)C(=O)NC1=O)cn2CCCN(C)C [Go 6983],52923.0,26190.1,–
CN1CCN(C2CCN(C(=O)Nc3cc(Oc4ccc(NC(=O)C5(C(=O)Nc6ccc(F)cc6)CC5)c(F)c4)ccn3)CC2)CC1 [Golvatinib (E7050)],36777.1,23267.5,–
Cl.Cl.O=S(=O)(NCCNC/C=C/c1ccc(Br)cc1)c1cccc2cnccc12 [H 89 2HCl],7807.6,56279.7,–
Cl.O=S(=O)(c1cccc2cnccc12)N1CCNCC1 [HA-100 (hydrochloride)],27295.9,14084.7,–
CCOC(=O)c1cnc2ccc(-c3cncc(NS(=O)(=O)c4ccccc4)c3)cn12 [HS-173],345.7,31987.4,–
Cc1nc(Nc2cnn(C3CCNCC3)c2)nc2c1N(C)C(=O)c1cc3ccccc3cc1N2C [HTH-01-015],4731.3,21129.9,–
COc1ccc2c(c1)[nH]c1c(C)nccc12 [Harmine hydrochloride],0.0,53937.1,–
COc1ccc2c(c1)[nH]c1c(C)nccc12 [Harmine],9958.7,24294.0,–
Cl.O=c1[nH]ccc2c(S(=O)(=O)N3CCCNCC3)cccc12 [Hydroxyfasudil hydrochloride],2331.1,751.7,–
COc1cc(OC)c(C=C2C(O)=Nc3ccccc32)c(OC)c1 [IC261],6564.9,46952.8,–
O=C(Nc1cc(C(F)(F)F)cc(C(F)(F)F)c1)c1cc(Cl)ccc1O [IMD 0354],3341.9,20862.1,–
CNC(=O)c1ccc(-c2cnc3ncc(Cc4ccc5ncccc5c4)n3n2)cc1F [INCB28060],59276.3,63091.3,–
COc1cc(N2CCOCC2)ccc1NC(=O)c1csc(-c2cccnc2)n1 [IRAK inhibitor 6],19776.5,7334.0,–
O=C(Nc1nc2ccccc2n1CCN1CCOCC1)c1cccc([N+](=O)[O-])c1 [IRAK-1-4 Inhibitor I],21347.7,22363.0,–
C#Cc1cccc(Nc2ncnc3cc4c(cc23)OCCOCCOCCO4)c1 [Icotinib],11365.1,24561.1,–
Nc1nc(Nc2ccc(S(N)(=O)=O)cc2)nn1C(=O)c1c(F)cccc1F [JNJ-7706621],0.0,4378.3,–
Cn1cc(-c2ccc3nnc(C(F)(F)c4ccc5ncccc5c4)n3n2)cn1 [JNJ-38877605],9345.0,32468.4,–
CN(C)C/C=C/C(=O)Nc1cccc(C(=O)Nc2ccc(Nc3nccc(-c4cccnc4)n3)cc2)c1 [JNK-IN-7],66910.1,45982.8,–
COc1cc(-c2cc(-c3cccc(O)c3)cnc2N)cc(OC)c1OC [K02288],4456.5,7061.1,–
COc1ccc(S(=O)(=O)Nc2ccccc2CN(C)C/C=C/c2ccc(Cl)cc2)cc1.Cl [KN-92 hydrochloride],0.0,14359.5,–
COc1ccc(S(=O)(=O)Nc2ccccc2CN(C)C/C=C/c2ccc(Cl)cc2)cc1.O=P(O)(O)O [KN-92 phosphate],4429.3,16946.8,–
COc1ccc(S(=O)(=O)N(CCO)c2ccccc2CN(C)C/C=C/c2ccc(Cl)cc2)cc1.O=P(O)(O)O [KN-93 Phosphate],4943.4,2840.4,–
Nc1ccc(/C=C/C(=O)NCc2cc3cc(-c4ccc(C(=O)N5CCC(F)(F)CC5)cc4)cc(-c4ccc(F)cc4)c3o2)cn1 [KPT-9274],6803.0,25813.6,–
CCCNC(=O)Nc1ccc(Oc2ncnc3cc(OC)c(OC)cc23)cc1Cl [KRN 633],55097.1,35164.2,–
O=c1cc(-c2cccc3c2Sc2ccccc2S3)oc(N2CCOCC2)c1 [KU 55933],33867.0,52307.6,–

SMILES,"dsRNA signal, AU High [AU]","dsRNA signal, AU Low [AU]",Reduction of infection in representative images (Figure 4A)
C[C@@H]1CN(CC(=O)Nc2ccc3c(c2)Cc2cccc(-c4cc(=O)cc(N5CCOCC5)o4)c2S3)C[C@H](C)O1 [KU-60019],31471.9,10671.9,–
COc1cc2nccc(Oc3ccc(NC(=O)Nc4ccc(F)cc4F)c(F)c3)c2cc1OC [Ki8751],16810.1,45822.4,–
COc1cc(Oc2ccnc3cc(OC)c(OC)cc23)ccc1NC(=O)NC(C)c1nccs1 (centres unmarked) [Ki20227],0.0,13064.0,–
CC(C)C[C@H](N)C(=O)O [L-Leucine],3716.4,18120.1,–
COc1ccccc1-c1cc(Nc2cccc(CS(N)(=O)=O)c2)ncn1 [LDC000067],31035.0,20712.1,–
Cl.c1ccc2c(-c3cnn4cc(-c5ccc(N6CCNCC6)cc5)cnc34)ccnc2c1 [LDN193189 Hydrochloride],42525.8,24650.0,–
c1ccc2c(-c3cnn4cc(-c5ccc(N6CCNCC6)cc5)cnc34)ccnc2c1 [LDN-193189],30043.0,7399.9,–
COc1cc(-c2cc(-c3ccc(N4CCNCC4)cc3)cnc2C)cc(OC)c1OC [LDN-214117],4693.4,28899.6,–
C/C(O)=C(\C#N)C(=O)Nc1cc(Br)ccc1Br [LFM-A13],60025.3,42758.8,–
c1ccc(-c2[nH]ncc2-c2ccnc3ccccc23)nc1 [LY364947],12638.5,3456.2,–
O=C1NC(=O)C(c2cnc3ccccn23)=C1c1cn2c3c(cc(F)cc13)CN(C(=O)N1CCCCC1)CC2 [LY2090314],16169.3,7523.7,–
c1ccc(-c2nn3c(c2-c2ccnc4cc(OCCN5CCOCC5)ccc24)CCC3)nc1 [LY2109761],9694.6,5823.5,–
Cc1cccc(-c2nn3c(c2-c2ccnc4ccc(C(N)=O)cc24)CCC3)n1 [LY2157299],33079.0,15107.1,–
CC(C)(C)Cn1c(N)nc2ccc(-c3[nH]c(C(C)(C)C)nc3-c3ccc(F)cc3)nc21 [LY2228820],88.7,5927.3,–
Cn1cc(-c2ccc(F)c(C(F)(F)F)c2)nc1C1CCN(c2ncnc3[nH]ncc23)CC1 [LY2584702],5638.3,15579.4,–
Cc1cnc(NC(=O)Nc2cc(Br)c(C)cc2OC[C@@H]2CNCCO2)cn1 [LY2603618],13995.2,6197.3,–
CCN1CCN(Cc2ccc(Nc3ncc(F)c(-c4cc(F)c5nc(C)n(C(C)C)c5c4)n3)nc2)CC1 [LY2835219 free base],59180.8,26611.9,–
C[C@@H](Oc1ccc2[nH]nc(/C=C/c3cnn(CCO)c3)c2c1)c1c(Cl)cncc1Cl [LY2874455],11432.5,3320.6,–
Cn1nccc1Nc1nccc(-c2cc3c(s2)C(C)(C)N(CCN2CCOCC2)C3=O)n1 [LY3214996],4594.5,22927.9,–
O=c1cc(N2CCOCC2)oc2c(-c3ccccc3)cccc12 [LY 294002],11164.3,43579.3,–
COc1cc2nccc(Oc3ccc(NC(=O)NC4CC4)c(Cl)c3)c2cc1C(N)=O [Lenvatinib (E7080)],26964.0,55504.0,–
CCN(CC)CC(=O)Nc1c(C)cccc1C [Lidocaine],26152.6,999.3,–
C[C@@H]1O[C@@H](OC[C@H]2O[C@@H](Oc3cc(O)c4c(=O)cc(-c5ccc(O)cc5)oc4c3)[C@H](O[C@@H]3O[C@@H](C)[C@H](O)[C@@H](O)[C@H]3O)[C@@H](O)[C@@H]2O)[C@H](O)[C@H](O)[C@H]1O [Ligustroflavone],4049.2,6040.1,–
"Cc1c(F)cc(C(=O)NC2CC2)cc1-c1ccc(C(=O)NCC(C)(C)C)cn1 [Losmapimod, reference compound]",–,–,poor activity
"Cn1cnc2c(F)c(Nc3ccc(Br)cc3F)c(C(=O)NOCCO)cc21 [MEK162 (ARRY-162, ARRY-438162)]",32104.0,54835.5,–
COCCNCc1ccc(-c2cc3nccc(Oc4ccc(NC(=S)NC(=O)Cc5ccc(F)cc5)cc4F)c3s2)nc1 [MGCD-265],4249.4,42710.5,–
O=[N+]([O-])c1ccc(Nc2nc(N3CCOCC3)nc(N3CCOCC3)n2)cc1 [MHY1485],4962.4,35655.5,–
